Measured values: US8263079B2, “Antibodies against CSF-1R” (ImClone, LLC, priority 2010, dated 2012)
Blank lines part the entries; values can stand above or below the molecule they belong to.

Legend:
DU145 prostate cells = experiment: Prostate tumor combination study, DU145 xenograft; format: in vivo, mouse; conditions: 12 mg/kg IP Q7Dx3, vs saline control, P 0.15
Excerpt: Inject Nu/nu mice (male, 7-8 weeks of age) subcutaneously with 1.5×10^7 DU145 prostate cells/mouse and allow tumors to reach 300 mm^3 before treatment. Randomize mice into groups of 10 and treat as follows:
Measure tumor volumes and calculate the T/C % for each treatment as the ratio of the relative tumor volumes versus the control group. Analyze tumor volumes using RM ANOVA.

HCC-1954 breast cells = experiment: Breast tumor combination studies, HCC-1954 xenograft; format: in vivo, mouse
Excerpt: Inject Nu/nu mice (female, 7-8 weeks of age) subcutaneously with 1×10^7 HCC-1954 breast cells/mouse and allow tumors to reach 300 mm^3 before treatment. Randomize mice into groups of 12 and treat as follows:
Measure tumor volumes and calculate the T/C % for each treatment group as the ratio of the relative tumor volumes versus the control group. Analyze tumor volumes using RM ANOVA.

CSF-1R = target: T1, CSF-1R (Homo sapiens, UniProt P07333); experiment: Degradation of CSF-1R in NIH-3T3-CSF-1R cells (Western blot, normalized to actin); format: cell-based
T1 construct: expressed in transfected cells
Method: Seed NIH-3T3-CSF-1R cells at 5×10^5 cells/well in a 12 well plate in 1 mL DMEM media containing 10% FBS and 1 mg/mL geniticin. […] CSF-1 is known to induce internalization and degradation of CSF-1R, thereby acting as a positive control for the experiment. Allow CSF-1 to remain on cells for 1 and 5 hours before collecting cells. […] Aspirate medium, lyse cells and run clarified lysates on gels (as described above). Probe transferred proteins with anti-CSF-1R antibodies to determine the amount of receptor for each condition. Probe the same blots with anti-actin antibodies to normalize protein levels. Quantify CSF-1R and actin levels using the Multi-Gauge program to measure band density on the Western blot. The relative total CSF-1R protein level is represented by the total CSF-1R band density divided by the corresponding actin band density.

Molecule: CC(=O)O[C@@]12CO[C@@H]1C[C@H](O)[C@@]1(C)C(=O)[C@H](O)C3=C(C)[C@@H](OC(=O)[C@H](O)[C@@H](NC(=O)OC(C)(C)C)c4ccccc4)C[C@@](O)([C@@H](OC(=O)c4ccccc4)[C@H]21)C3(C)C [Docetaxel]
- % T/C (DU145 prostate cells): 59%

Molecule: COc1cccc2c1C(=O)c1c(O)c3c(c(O)c1C2=O)C[C@@](O)(C(=O)CO)C[C@@H]3O[C@H]1C[C@H](N)[C@H](O)[C@H](C)O1 [Doxorubicin]
- % T/C (HCC-1954 breast cells; 8 mg/kg IP Q7Dx2, vs saline control, P 0.008): 50%

Molecule: CC(=O)O[C@H]1C(=O)[C@@]2(C)[C@H]([C@H](OC(=O)c3ccccc3)[C@]3(O)C[C@H](OC(=O)[C@H](O)[C@@H](NC(=O)c4ccccc4)c4ccccc4)C(C)=C1C3(C)C)[C@]1(OC(C)=O)CO[C@@H]1C[C@@H]2O [Paclitaxel]
- % T/C (HCC-1954 breast cells; 10 mg/kg IP Q7Dx3, vs saline control, P<0.01): 60%

- CSF-1R levels (degradation) (CSF-1R; 100 ng/mL CSF-1, by 5 hours, positive control): halved
- time to degradation of CSF-1R (CSF-1R; 100 ng/mL CSF-1, positive control): ≤ 1 h
B1: CSF-1: Colony Stimulating Factor-1, CSF-1R ligand, positive control for receptor degradation (protein, listed as Homo sapiens)
chain: MTAPGAAGRCPPTTWLGSLLLLVCLLASRSITEEVSEYCSHMIGSGHLQSLQRLIDSQMETSCQITFEFVDQEQLKDPVCYLKKAFLLVQDIMEDTMRFRDNTPNAIAIVQLQELSLRLKSCFTKDYEEHDKACVRTFYETPLQLLEKVKNVFNETKNLLDKDWNIFSKNCNNSFAECSSQDVVTKPDCNCLYPKAIPSSDPASVSPHQPLAPSMAPVAGLTWEDSEGTEGSSLLPGEQPLHTVDPGSAKQRPPRSTCQSFEPPETPVVKDSTIGGSPQPRPSVGAFNPGMEDILDSAMGTNWVPEEASGEASEIPVPQGTELSPSRPGGGSMQTEPARPSNFLSASSPLPASAKGQQPADVTGTALPRVGPVRPTGQDWNHTPQKTDHPSALLRDPPEPGSPRISSLRPQGLSNPSTLSAQPQLSRSHSSGSVLPLGELEGRRSTRDRRSPAEPEGGPASEGAARPLPRFNSVPLTDTGHERQSEGSFSPQLQESVFHLLVPSVILVLLAVGGLLFYRWRRRSHQEPQRADSPLEQPEGSPLTQDDRQVELPV
